Where two headings read alike, the source gives them in different places.
Experiments:
[1] = test system: 3D7-strain P. falciparum asexual parasites; assay: P. falciparum asexual growth inhibition assay (Pf GIA); format: cell-based, Plasmodium falciparum; conditions: dose response confirmation; read-out: Pf asexual growth inhibition assays IC50
Outline: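 LDH readout: absorbance at 650 nm after 10 min at room temperature with lactate/APAD/NBT/diaphorase mix on thawed plates. Cultures (0.25% parasitemia, 2% hematocrit) were treated 72 h at 37°C in low-oxygen gas. Inhibition was normalised to 50 μM chloroquine and DMSO; n=3 biological replicates.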

[2] = test system: P. berghei ookinete development; conditions: for % inhibition, Replicate A / % inhibition, Replicate B: primary screen at 1 μM
HepG2 cells = assay: HepG2 cytotoxicity assay; conditions: for Pb ODA (this manuscript) HepG2 cytoxicity: HepG2 cytotoxicity listed with the Pb ODA data set (this manuscript); for IC50: read-out: HepG2 cytotoxicity assay IC50, dose response confirmation
Outline: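 Cells are plated at 2,500 per well on compound-treated plates in MEM containing 10% fetal bovine serum and 1% NEAA, then incubated 48 h at 37°C.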

[3] = read-out: Pb ODA (this manuscript) IC50, P. berghei ookinete development assay, this manuscript
[4] = read-out: Pb Ookinete development assay IC50, dose response confirmation
[5] = read-out: Pb ODA IC50, this manuscript
[6] = unified HepG2 value across the three screens
[7] = HepG2 values of the three screens unified

SMILES	IC50 [1] [nM]	Is compound selective in assay? Pb ODA active? [2]	% inhibition, Replicate A [2] [%]	% inhibition, Replicate B [2] [%]	IC50 [2, 3] [nM]	IC50 [2, 4] [nM]	Pb ODA (this manuscript) HepG2 cytoxicity (HepG2 cells) [µM]	IC50 (HepG2 cells) [nM]	Is compound selective in assay? Pb ODA active? ([2]; 1: YES, 0: NO)	IC50 [2, 5] [nM]	Unified cytotox (HepG2 cells; [6]) [µM]	HepG2 cytoxicity (Pb ODA, this manuscript) (HepG2 cells) [µM]	Unified cytotox (HepG2 cells; [7]) [µM]
CNC(=O)c1ccccc1Nc1nc(Nc2ccc(N3CCOCC3)cc2)ncc1Cl.Cl [TCMDC-134144]	1990	0 (key: 1: YES; 0: NO)	67.63	105.55	390	387	3.63	3630					
COc1ccc(Nc2ncc(OC)c(Nc3ccccc3C(N)=O)n2)cc1N1CCN(C)CC1.O=CO [TCMDC-134149]	846	1 (key: 1: YES; 0: NO)	85.24	71.46		270	13.49	13500					
NCC(NC(=O)c1ccc(-c2c[nH]c3ncccc23)s1)c1ccccc1.O=CO (stereo not shown) [TCMDC-134154]	558		101.79	81.42		964		16200	1 (1: YES)	960	16.22		
COc1ccc(Nc2ncc(Cl)c(Nc3cccnc3C(N)=O)n2)cc1N1CCN(C)CC1.Cl [TCMDC-134163]	169	1 (key: 1: YES; 0: NO)	91.07	92.91		380	11.22	11200					
CN1CCN(c2ccc(Nc3ncc(Cl)c(Nc4cccnc4C(N)=O)n3)cc2)CC1.Cl [TCMDC-134164]	84	1 (key: 1: YES; 0: NO)	96.98	90.60	230	226	4.62	4620					
CS(=O)(=O)Cc1ccc(Nc2ncc(Cl)c(Nc3cccnc3C(N)=O)n2)cc1.Cl [TCMDC-134165]	969	1 (key: 1: YES; 0: NO)	41.15	108.98	700	699	100.00	100000					
CS(=O)(=O)Cc1cccc(Nc2ncc(Cl)c(Nc3cccnc3C(N)=O)n2)c1.Cl [TCMDC-134166]	273	0 (key: 1: YES; 0: NO)	102.49	90.53	1210	1200	4.79	4790					
NC(=O)c1ccccc1Nc1nc(Nc2cc[nH]n2)ncc1Cl [TCMDC-134169]	2310	1 (key: 1: YES; 0: NO)	78.38	61.96	510	513	13.18	13200					
COc1cc(NC2=NS(=O)(=O)c3cc(Cl)ccc3N2C)cc(OC)c1OC.O=C(O)C(F)(F)F [TCMDC-134208]	146		117.05	98.94		1350		100000	1 (1: YES)	1350	100.00		
CC(C#N)Cc1ccc(-c2cnc(N)c3cc(-c4ccnc(N)n4)ccc23)cc1 (stereo not shown) [TCMDC-134547]	1370		69.67	52.16		849		5750	0 (0: NO)	850	5.75		
COc1ccc2nccc(N3CCC(NCCNCc4ccc5c(n4)NC(=O)CO5)C3)c2n1.Cl (stereo not shown) [TCMDC-134548]	1.4		4.96	51.82		1620		42700	1 (1: YES)	1630	42.66		
COCCN(C)c1ccc(C(=O)Nc2ccccc2)cc1NS(=O)(=O)Cc1ccccc1.O=C(O)C(F)(F)F [TCMDC-134575]	606		51.04	48.31		1400		100000	1 (1: YES)		100.00		
COc1ccc2ncc(C)c(CCN3CCC(NCc4ccc5c(n4)NC(=O)CS5)CC3)c2c1.Cl [TCMDC-134648]	872		66.89	104.06		2550		34700	1 (1: YES)	2550		34.67	34.67
COc1ccc2ncc(Cl)c(NCC3(O)CCC(NCc4ccc5c(n4)NC(=O)CS5)CC3)c2n1.Cl (stereo not shown) [TCMDC-134671]	1210		92.69	100.49		813		12600	1 (1: YES)	810		12.59	12.59
Cc1[nH]c(C)c(-c2ccc(C#Cc3ccc(F)cc3F)cc2)c(=O)c1Br [TCMDC-134692]	16	1 (key: 1: YES; 0: NO)	89.67	88.19	400	399	100.00	100000					
COc1ccc2nccc([C@@H](O)CN3C4CCC3CC(NCc3ccc5c(n3)NC(=O)CS5)C4)c2n1.Cl (stereo partly shown) [TCMDC-134697]	1060		46.01	53.20		4000		38900	0 (0: NO)			38.90	38.90
COc1cc(OC)cc(-c2nn(-c3ccc([N+](=O)[O-])cc3C#N)c(=S)n2Cc2ccco2)c1 [TCMDC-134715]	744		26.66	59.14		1600		100000	1 (1: YES)	1600	100.00		
N#Cc1cc([N+](=O)[O-])ccc1-n1nc(C(N)=O)n(Cc2cccc(F)c2)c1=S [TCMDC-134721]	650		66.73	70.30		1120		34700	1 (1: YES)	1120	34.67		
Cc1[nH]c(C)c(-c2ccc(-c3ccc(OC(F)(F)F)cc3)cc2)c(=O)c1Br [TCMDC-134726]	19	1 (key: 1: YES; 0: NO)	101.74	103.66	25.7	26	7.76	7760					

From paper PMC6753678, “Fueling Open Innovation for Malaria Transmission-Blocking Drugs: Hundreds of Molecules Targeting Early Parasite Mosquito Stages” (Frontiers in Microbiology, 2019)
